Results: patent publication US11028058B2, “Heterocyclic compounds as adenosine antagonists” (NUVATION BIO INC., priority 2017, dated 2021)
Blank lines part the entries; values can stand above or below the compound they belong to.

Legend:
[1] = molecular target: HEK-293 cells expressing human recombinant adenosine A2A receptor (Homo sapiens (Human), UniProt P29274); test: cAMP assay, Assay 2 (Eu-cAMP tracer / ULight-anti-cAMP); format: cell-based; conditions: Assay 2
Procedure: The functional activity of compounds was tested using one of the two assays to detect the present of cAMP. Activation of G-protein coupled receptors (such as A2A) results in activation of adenylcyclase which converts ATP into cAMP which is used as a downstream signaling molecule. Therefore, molecules which act as GPCR (or specifically A2A receptor) antagonists cause a decrease in intracellular cAMP concentration.
Both assays used HEK-293 cells expressing human recombinant adenosine A2A receptor were grown prior to the test in media without antibiotic.
Assay 2 (Table B2-2): 100 nL of test articles at 100× of final concentration were transferred to assay plate by Echo. Cells were washed twice with 5 mL of PBS […]. After aspirating the PBS and adding 1.5 mL versine, cells were incubated at 37° C. for 2-5 min. After centrifugation, 4 mL of medium was added and adjusted cell density to 5,000 cells/well with Stimulation Buffer. 10 μL of cells were aliquoted to the assay plate, centrifuged at 1000 rpm for 1 minute, and incubated for 60 minutes at room temperature. 5 μL 4×Eu-cAMP tracer solution and 5 μL 4×Ulight™-anti-cAMP solution were added to assay plate, followed by centrifugation and 60-minute incubation at room temperature. Plates were read on EnVision.

[2] = molecular target: human adenosine A2A membrane preparation (Homo sapiens (Human), UniProt P29274); test: Adenosine A2A receptor radioligand binding assay (SPA beads, 3H-SCH 58261, 384 plate); conditions: for IC50: Table B1-2; for inhibition at 0.01 µM: read-out: A2a binding % inh @ 10 nM; for inhibition at 0.1 µM: read-out: A2a binding % inh @ 100 nM; for inhibition at 1 µM: read-out: A2a binding % inh @ 1000 nM; for inhibition at 0.001 µM: read-out: A2a binding % inh @ 1 nM
Chain of human adenosine A2A membrane preparation (P29274 whole entry): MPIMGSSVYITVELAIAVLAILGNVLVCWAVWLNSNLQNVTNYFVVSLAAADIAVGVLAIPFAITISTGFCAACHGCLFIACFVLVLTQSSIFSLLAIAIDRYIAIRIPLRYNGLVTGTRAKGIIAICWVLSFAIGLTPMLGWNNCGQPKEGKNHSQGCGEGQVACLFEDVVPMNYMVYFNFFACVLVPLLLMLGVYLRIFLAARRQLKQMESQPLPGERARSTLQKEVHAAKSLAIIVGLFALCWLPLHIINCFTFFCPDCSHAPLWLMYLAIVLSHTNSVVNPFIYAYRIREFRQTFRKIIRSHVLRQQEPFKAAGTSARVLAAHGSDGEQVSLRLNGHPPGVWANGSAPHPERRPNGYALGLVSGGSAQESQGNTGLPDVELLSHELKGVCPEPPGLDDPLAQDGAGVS
Procedure: For the A2A adenosine receptor radioligand binding assay, the following modifications were made to the general protocol. GF/C filters (Perkin Elmer, 6005174), presoaked in 0.01% Brij for 2 h at room temperature were used. Filters were washed six times with 0.5 mL of ice-cold washing buffer (50 mM Tris pH 7.4) and 50 μL of Microscint 20 (Packard) was added in each well. The plates were then incubated for 15 min on an orbital shaker and then counted with a TopCount™ for 1 min/well. Another radioligand binding assay was used to evaluate the binding affinity for the adenosine A2A receptor assay was performed in duplicate in the wells of a 384 plate. Assay buffer contained DPBS 500 mM, MgCl2 0.1 mM, and 1% DMSO. Membrane-bead suspension was prepared by mixing 25.98 μL of human adenosine A2A membrane preparation (Perkin Elmer, RBHA2AM400UA) at 33.4 μg/mL, 28 μL of ADA at 20 μg/mL, and 932 μL of SPA beads at 3.33 mg/mL) and incubated the mixture for 20 min at room temperature. Mixed 20 μL of radiotracer (^3H-SCH 58261) at 15 nM to each well containing test articles at various concentrations and centrifuge the plate at 1000 rpm for 1 minute. Added 30 μL of the membraine-bead suspension to each well. Sealed the plates and incubated for 1 hr at room temperature with vigorous mixing on a plate mixer. Plates were read on Microbeta^2 (Perkin Elmer, 2450-0010).

Chain of HEK-293 cells expressing human recombinant adenosine A2A receptor (P29274 whole entry): as above

Compound: Cc1ccn(-c2nc(N)cnc2-c2cc(Cl)c3[nH]ncc3c2)n1 [Compound 1.295, 5-(7-chloro-1H-indazol-5-yl)-6-(3-methyl-1H-pyrazol-1-yl)pyrazin-2-amine]
IC50 [1]: 33 nM | IC50 [2]: 5.5 nM

Compound: Cc1ccn(-c2nc(N)cnc2-c2cc(C)c3ncccc3c2)n1 [Compound 1.296, 6-(3-methyl-1H-pyrazol-1-yl)-5-(8-methylquinolin-6-yl)pyrazin-2-amine]
IC50 [1]: 130 nM

Compound: Cn1ccc(-c2nc(N)cnc2-c2ccc3[nH]ncc3c2)n1 [Compound 1.299, 5-(1H-indazol-5-yl)-6-(1-methyl-1H-pyrazol-3-yl)pyrazin-2-amine]
IC50 [1]: 1250 nM

Compound: Cc1cnn(-c2nc(N)cnc2-c2cc(Cl)c3ncccc3c2)c1 [Compound 1.303, 5-(8-chloroquinolin-6-yl)-6-(4-methyl-1H-pyrazol-1-yl)pyrazin-2-amine]
IC50 [1]: 573 nM

Compound: Cn1ccc(-c2nc(N)cnc2-c2cc(Cl)c3[nH]ncc3c2)n1 [Compound 1.304, 5-(7-chloro-1H-indazol-5-yl)-6-(1-methyl-1H-pyrazol-3-yl)pyrazin-2-amine]
IC50 [1]: 40 nM | IC50 [2]: 9 nM

Compound: Nc1cnc(-c2cc(Cl)c3ncccc3c2)c(-n2ccc(C(F)(F)F)n2)n1 [Compound 1.306, 5-(8-chloroquinolin-6-yl)-6-(3-(trifluoromethyl)-1H-pyrazol-1-yl)pyrazin-2-amine]
IC50 [1]: 120 nM

Compound: Nc1cnc(-c2cc(Cl)c3ncccc3c2)c(-c2ccn(C3CC3)n2)n1 [Compound 1.307, 5-(8-chloroquinolin-6-yl)-6-(1-cyclopropyl-1H-pyrazol-3-yl)pyrazin-2-amine]
IC50 [1]: 8480 nM

Compound: Cc1ccn(-c2nc(N)c(O)nc2-c2cc(Cl)c3ncccc3c2)n1 [Compound 1.313, 3-amino-6-(8-chloroquinolin-6-yl)-5-(3-methyl-1H-pyrazol-1-yl)pyrazin-2-ol]
IC50 [1]: 1550 nM

Compound: Cn1ccc(-c2nc(N)cnc2-c2cc(F)c3ncccc3c2)n1 [Compound 1.314, 5-(8-fluoroquinolin-6-yl)-6-(1-methyl-1H-pyrazol-3-yl)pyrazin-2-amine]
IC50 [1]: 1540 nM

Compound: Cc1ccn(-c2nc(N)c(Br)nc2-c2cc(Cl)c3ncccc3c2)n1 [Compound 1.316, 3-bromo-5-(8-chloroquinolin-6-yl)-6-(3-methyl-1H-pyrazol-1-yl)pyrazin-2-amine]
IC50 [1]: 40.1 nM

Compound: Cc1ccn(-c2nc(N)c(C(N)=O)nc2-c2cc(Cl)c3ncccc3c2)n1 [Compound 1.317, 3-amino-6-(8-chloroquinolin-6-yl)-5-(3-methyl-1H-pyrazol-1-yl)pyrazine-2-carboxamide]
IC50 [1]: 279 nM

Compound: Cn1ccc(-c2nc(N)c(Br)nc2-c2cc(Cl)c3ncccc3c2)n1 [Compound 1.324, 3-bromo-5-(8-chloroquinolin-6-yl)-6-(1-methyl-1H-pyrazol-3-yl)pyrazin-2-amine]
IC50 [1]: 12.5 nM

Compound: Nc1cnc(-c2ccc3c(=O)[nH]ccc3c2)c(-c2ccccc2)n1 [Compound 1.327, 6-(5-amino-3-phenylpyrazin-2-yl)isoquinolin-1(2H)-one]
IC50 [1]: 173 nM

Compound: Cn1ccc(-c2nc(N)cnc2-c2ccc3[nH]c(=O)ccc3c2)n1 [Compound 1.353, 6-(5-amino-3-(1-methyl-1H-pyrazol-3-yl)pyrazin-2-yl)quinolin-2(1H)-one]
IC50 [1]: > 10000 nM

Compound: Cc1ccc(-c2nc(N)c(C#N)nc2-c2ccc3ncccc3c2)o1 [Compound No. 1.281, 3-amino-5-(5-methylfuran-2-yl)-6-(quinolin-6-yl)pyrazine-2-carbonitrile]
inhibition at 0.01 µM [2]: 78% | inhibition at 0.1 µM [2]: 88% | inhibition at 1 µM [2]: 80%

Compound: Cc1ccc(-c2nc(N)c(C#N)nc2-c2ccc3ncccc3c2)s1 [Compound No. 1.282, 3-amino-5-(5-methylthiophen-2-yl)-6-(quinolin-6-yl)pyrazine-2-carbonitrile]
inhibition at 0.01 µM [2]: 74% | inhibition at 0.1 µM [2]: 82% | inhibition at 1 µM [2]: 79%

Compound: CC(=O)Nc1nc(-c2ccccc2)c(-c2ccc3ncccc3c2)nc1C#N [Compound No. 1.284, N-(3-cyano-6-phenyl-5-(quinolin-6-yl)pyrazin-2-yl)acetamide]
inhibition at 0.01 µM [2]: 32% | inhibition at 0.1 µM [2]: 76% | inhibition at 1 µM [2]: 83%

Compound: Nc1cnc(-c2cc(Cl)c3[nH]ncc3c2)c(-c2ccccc2)n1 [Compound No. 1.289]
inhibition at 0.001 µM [2]: 41% | inhibition at 0.01 µM [2]: 75% | inhibition at 0.1 µM [2]: 87% | inhibition at 1 µM [2]: 95%

Compound: Cc1cc(C)n(-c2nc(N)cnc2-c2ccc3ncccc3c2)n1 [Compound No. 1.291, 6-(3,5-dimethyl-1H-pyrazol-1-yl)-5-(quinolin-6-yl)pyrazin-2-amine]
inhibition at 0.001 µM [2]: 0% | inhibition at 0.01 µM [2]: 0% | inhibition at 0.1 µM [2]: 0%

Compound: Cc1ccn(-c2nc(N)c(C#N)nc2-c2cc(Cl)c3ncccc3c2)n1 [Compound No. 1.292, 3-amino-6-(8-chloroquinolin-6-yl)-5-(3-methyl-1H-pyrazol-1-yl)pyrazine-2-carbonitrile]
IC50 [2]: 2.4 nM | inhibition at 0.001 µM [2]: 50% | inhibition at 0.01 µM [2]: 93% | inhibition at 0.1 µM [2]: 95%

Compound: Nc1cnc(-c2ccc3ncccc3c2)c(-c2cc[nH]n2)n1 [Compound No. 1.293, 6-(1H-pyrazol-3-yl)-5-(quinolin-6-yl)pyrazin-2-amine]
inhibition at 0.001 µM [2]: 28% | inhibition at 0.01 µM [2]: 32% | inhibition at 0.1 µM [2]: 31%

Now from value to compound:

IC50 [1]: > 10000 nM
Compound: Cc1n[nH]c(C)c1-c1nc(N)cnc1-c1ccc2ncccc2c1 [Compound 1.294, 6-(3,5-dimethyl-1H-pyrazol-4-yl)-5-(quinolin-6-yl)pyrazin-2-amine]

IC50 [1]: 47.9 nM | IC50 [2]: 17 nM
Compound: Cn1ccc(-c2nc(N)cnc2-c2cc(Cl)c3ncccc3c2)n1 [Compound 1.297, 5-(8-chloroquinolin-6-yl)-6-(1-methyl-1H-pyrazol-3-yl)pyrazin-2-amine]

IC50 [1]: > 10000 nM
Compound: Nc1cnc(-c2ccc3ncccc3c2)c(N2CCCC2)n1 [Compound 1.298, 6-(pyrrolidin-1-yl)-5-(quinolin-6-yl)pyrazin-2-amine]

IC50 [1]: 120 nM
Compound: Cc1ccn(-c2nc(N)cnc2-c2cc(C)c3[nH]ncc3c2)n1 [Compound 1.300, 5-(7-methyl-1H-indazol-5-yl)-6-(3-methyl-1H-pyrazol-1-yl)pyrazin-2-amine]

IC50 [1]: > 10000 nM
Compound: Nc1cnc(-c2ccc3ncccc3c2)c(N2CCCC2=O)n1 [Compound 1.301, 1-(6-amino-3-(quinolin-6-yl)pyrazin-2-yl)pyrrolidin-2-one]

IC50 [1]: 96 nM
Compound: Cn1ccc(-c2nc(N)cnc2-c2cc(Cl)c3ncsc3c2)n1 [Compound 1.305, 5-(4-chlorobenzo[d]thiazol-6-yl)-6-(1-methyl-1H-pyrazol-3-yl)pyrazin-2-amine]

IC50 [1]: 127 nM
Compound: Cn1ccc(-c2nc(N)c(O)nc2-c2cc(Cl)c3ncccc3c2)n1 [Compound 1.310, 3-amino-6-(8-chloroquinolin-6-yl)-5-(1-methyl-1H-pyrazol-3-yl)pyrazin-2-ol]

IC50 [1]: 279 nM
Compound: Cn1ccc(-c2nc(N)c(C(N)=O)nc2-c2cc(Cl)c3ncccc3c2)n1 [Compound 1.311, 3-amino-6-(8-chloroquinolin-6-yl)-5-(1-methyl-1H-pyrazol-3-yl)pyrazine-2-carboxamide]

IC50 [1]: 251 nM
Compound: COc1nc(-c2cc(Cl)c3ncccc3c2)c(-c2ccn(C)n2)nc1N [Compound 1.312, 5-(8-chloroquinolin-6-yl)-3-methoxy-6-(1-methyl-1H-pyrazol-3-yl)pyrazin-2-amine]

IC50 [1]: 1930 nM
Compound: CCn1ccc(-c2nc(N)cnc2-c2cc(Cl)c3ncccc3c2)n1 [Compound 1.319, 5-(8-chloroquinolin-6-yl)-6-(1-ethyl-1H-pyrazol-3-yl)pyrazin-2-amine]

IC50 [1]: > 10000 nM
Compound: Cn1cccc(-c2nc(N)cnc2-c2cc(Cl)c3ncccc3c2)c1=O [Compound 1.329, 3-(6-amino-3-(8-chloroquinolin-6-yl)pyrazin-2-yl)-1-methylpyridin-2(1H)-one]

IC50 [1]: 563 nM
Compound: Cc1cnc(-c2nc(N)cnc2-c2cc(Cl)c3ncccc3c2)s1 [Compound 1.395, 5-(8-chloroquinolin-6-yl)-6-(5-methylthiazol-2-yl)pyrazin-2-amine]

inhibition at 0.01 µM [2]: 63% | inhibition at 0.1 µM [2]: 83% | inhibition at 1 µM [2]: 95%
Compound: N#Cc1nc(-c2ccc3ncncc3c2)c(-c2ccccc2)nc1N [Compound No. 1.283, 3-amino-5-phenyl-6-(quinazolin-6-yl)pyrazine-2-carbonitrile]
